What was measured:
[1] = target: wild-type human cardiac sodium channel, hNav1.5 (Homo sapiens, UniProt Q14524); test: Late INa screening assay (PatchXpress whole cell patch clamp, late current generated with Tefluthrin or ATX II); assay type: cell-based; conditions: for Late INa % blk / inhibition at 10 µM: test compound at 10 μM; for inhibition at 10 µM: read-out: Late INa % blk
Description: The late sodium current (Late INa) and peak sodium current (Peak INa) assays are performed on an automated electrophysiology platform, PatchXpress 7000A (MDS Analytical Technologies, Sunnyvale, Calif.), which uses the whole cell patch clump technique to measure currents through the cell membrane of up to 16 cells at a time. The assay uses an HEK293 (human embryonic kidney) cell line heterologously expressing the wild-type human cardiac sodium channel, hNav1.5, purchased from Millipore (Billerica, Mass.). No beta subunits were coexpressed with the Na channel alpha subunit. […] Experiments are carried out at 24-27° C.
For both the Late INa and Peak INa assays, series resistance compensation is set to 50% and whole-cell compensation is performed automatically. […] Currents through open sodium channels are automatically recorded and stored in the DataXpress2 database (MDS Analytical Technologies, Sunnyvale, Calif.). Analysis is performed using DataXpress2 analysis software and data are compiled in Excel.
Compound stocks are routinely made in glass vials to 10 mM in dimethyl sulfoxide (DMSO). In some cases, when compounds are not soluble in DMSO, they are made in 100% ethanol. Stocks are sonicated as necessary. The extracellular solution for screening Late INa is composed of: 140 mM NaCl, 4 mM KCl, 1.8 mM CaCl2, 0.75 mM MgCl2, and 5 mM HEPES with pH adjusted to 7.4 using NaOH. The extracellular solution for screening Peak INa is composed of: 20 mM NaCl, 120 mM N-methyl-D glucamine, 4 mM KCl, 1.8 mM CaCl2, 0.75 mM MgCl2, and 5 mM HEPES with pH adjusted to 7.4 using HCl. The intracellular solution used to perfuse the inside of the cells for both the Late INa and Peak INa assays contains: 120 mM CsF, […], 5 mM EGTA, 5 mM HEPES and pH adjusted to 7.4 with CsOH. […] The ONa extracellular solution used at the end of each experiment for the Late INa and Peak INa assays to measure baseline current contains: 140 mM N-methyl-D-glucamine; 4 mM KCl; 1.8 mM CaCl2; 0.75 mM MgCl2; 5 mM HEPES and pH was adjusted to 7.4 with HCl.
For the Late INa assay, sodium channels are activated every 10 seconds (0.1 Hz) by depolarizing the cell membrane to −20 mV for 250 milliseconds (ms) from a holding potential of −120 mV.
All compounds are tested to determine their activity in blocking the late sodium current. Late INa current is generated by adding 10 μM Tefluthrin (pyrethroid) to the extracellular solution while recording Na currents. […] For some experiments, 50 nM ATX II (sea anemone toxin), another late INa activator, was used to generate the late component. […] Baseline current in the absence of Na^+ ions is measured at the end of each experiment (after two additions of 0 Na solution—see above) and is used to calculate the percent block by compound.

L-type calcium channel = L-type calcium channel activity well-plate assay (IMR-32 cells, Ca-4 dye, FlexStation); assay type: cell-based, human
Description: Cell Culture: IMR-32 (human neuroblastoma) cells were obtained from The American Type Culture Collection. The cells were maintained in MEM supplemented with 10% fetal bovine serum, 2 mM of L-glutamine, 100 IU/ml of penicillin, 50 μg/ml of streptomycin, 1% of sodium pyruvate, 1% of sodium bicarbonate and 1% of non-essential amino acid. […] Culture medium was changed every two days and cells were recultivated when they reached 70-80% confluent.
Assay: IMR-32 cells were seeded on a Microtest 96-well Assay Plate (BD FALCON™) at a density of 200,000 cells/well in 200 μl culture medium for overnight. The culture medium was removed, and replaced by 120 μl Ca-4 dye (MDS Analytical Technologies, Sunnyvale, Calif.) in HBSS (1× Hank's Balanced Salt solution plus 20 mM HEPES, pH 7.4) containing 2 mM probenecid. Cells were then incubated for 1 hour at 37° in incubator. Testing compounds were diluted from 5 μM-50 μM in HBSS, and 40 μl were added in cells before assay. […] The inhibition of L-type calcium channel activity by compounds was then calculated.

hERG potassium channel = hERG potassium channel (Homo sapiens, UniProt Q12809); test: hERG screening assay (PatchXpress patch clamp, CHO cells)
Sequence of hERG potassium channel (Q12809 whole entry): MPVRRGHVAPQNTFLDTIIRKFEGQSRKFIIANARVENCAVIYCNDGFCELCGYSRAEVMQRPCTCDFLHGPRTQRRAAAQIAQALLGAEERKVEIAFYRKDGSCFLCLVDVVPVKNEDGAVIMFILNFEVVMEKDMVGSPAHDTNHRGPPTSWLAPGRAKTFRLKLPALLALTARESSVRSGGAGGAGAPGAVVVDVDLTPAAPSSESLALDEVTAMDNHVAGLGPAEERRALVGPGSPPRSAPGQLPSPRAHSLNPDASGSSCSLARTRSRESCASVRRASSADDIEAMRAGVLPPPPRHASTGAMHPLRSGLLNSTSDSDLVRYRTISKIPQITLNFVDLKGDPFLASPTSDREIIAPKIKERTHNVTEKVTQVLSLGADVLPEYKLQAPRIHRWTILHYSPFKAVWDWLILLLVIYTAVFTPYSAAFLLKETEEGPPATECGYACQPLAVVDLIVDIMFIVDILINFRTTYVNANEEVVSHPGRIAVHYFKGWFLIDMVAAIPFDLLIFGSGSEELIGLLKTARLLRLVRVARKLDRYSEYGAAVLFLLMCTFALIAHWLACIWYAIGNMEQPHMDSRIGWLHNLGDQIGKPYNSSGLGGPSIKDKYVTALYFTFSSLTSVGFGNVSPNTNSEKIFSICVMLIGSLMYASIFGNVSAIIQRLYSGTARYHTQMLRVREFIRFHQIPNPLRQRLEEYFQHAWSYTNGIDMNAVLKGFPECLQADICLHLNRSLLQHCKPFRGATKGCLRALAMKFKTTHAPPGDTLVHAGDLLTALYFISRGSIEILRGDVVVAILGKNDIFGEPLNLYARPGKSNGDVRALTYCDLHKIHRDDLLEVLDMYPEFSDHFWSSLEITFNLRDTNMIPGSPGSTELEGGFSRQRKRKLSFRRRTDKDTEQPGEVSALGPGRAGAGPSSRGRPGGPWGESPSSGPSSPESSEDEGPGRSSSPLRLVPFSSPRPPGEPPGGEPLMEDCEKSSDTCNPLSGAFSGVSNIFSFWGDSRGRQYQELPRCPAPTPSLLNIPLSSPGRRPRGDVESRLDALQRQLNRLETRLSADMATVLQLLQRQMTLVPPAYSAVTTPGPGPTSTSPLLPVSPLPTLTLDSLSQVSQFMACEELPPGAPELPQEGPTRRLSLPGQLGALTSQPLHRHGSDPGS

Sequence of wild-type human cardiac sodium channel, hNav1.5 (Q14524 whole entry): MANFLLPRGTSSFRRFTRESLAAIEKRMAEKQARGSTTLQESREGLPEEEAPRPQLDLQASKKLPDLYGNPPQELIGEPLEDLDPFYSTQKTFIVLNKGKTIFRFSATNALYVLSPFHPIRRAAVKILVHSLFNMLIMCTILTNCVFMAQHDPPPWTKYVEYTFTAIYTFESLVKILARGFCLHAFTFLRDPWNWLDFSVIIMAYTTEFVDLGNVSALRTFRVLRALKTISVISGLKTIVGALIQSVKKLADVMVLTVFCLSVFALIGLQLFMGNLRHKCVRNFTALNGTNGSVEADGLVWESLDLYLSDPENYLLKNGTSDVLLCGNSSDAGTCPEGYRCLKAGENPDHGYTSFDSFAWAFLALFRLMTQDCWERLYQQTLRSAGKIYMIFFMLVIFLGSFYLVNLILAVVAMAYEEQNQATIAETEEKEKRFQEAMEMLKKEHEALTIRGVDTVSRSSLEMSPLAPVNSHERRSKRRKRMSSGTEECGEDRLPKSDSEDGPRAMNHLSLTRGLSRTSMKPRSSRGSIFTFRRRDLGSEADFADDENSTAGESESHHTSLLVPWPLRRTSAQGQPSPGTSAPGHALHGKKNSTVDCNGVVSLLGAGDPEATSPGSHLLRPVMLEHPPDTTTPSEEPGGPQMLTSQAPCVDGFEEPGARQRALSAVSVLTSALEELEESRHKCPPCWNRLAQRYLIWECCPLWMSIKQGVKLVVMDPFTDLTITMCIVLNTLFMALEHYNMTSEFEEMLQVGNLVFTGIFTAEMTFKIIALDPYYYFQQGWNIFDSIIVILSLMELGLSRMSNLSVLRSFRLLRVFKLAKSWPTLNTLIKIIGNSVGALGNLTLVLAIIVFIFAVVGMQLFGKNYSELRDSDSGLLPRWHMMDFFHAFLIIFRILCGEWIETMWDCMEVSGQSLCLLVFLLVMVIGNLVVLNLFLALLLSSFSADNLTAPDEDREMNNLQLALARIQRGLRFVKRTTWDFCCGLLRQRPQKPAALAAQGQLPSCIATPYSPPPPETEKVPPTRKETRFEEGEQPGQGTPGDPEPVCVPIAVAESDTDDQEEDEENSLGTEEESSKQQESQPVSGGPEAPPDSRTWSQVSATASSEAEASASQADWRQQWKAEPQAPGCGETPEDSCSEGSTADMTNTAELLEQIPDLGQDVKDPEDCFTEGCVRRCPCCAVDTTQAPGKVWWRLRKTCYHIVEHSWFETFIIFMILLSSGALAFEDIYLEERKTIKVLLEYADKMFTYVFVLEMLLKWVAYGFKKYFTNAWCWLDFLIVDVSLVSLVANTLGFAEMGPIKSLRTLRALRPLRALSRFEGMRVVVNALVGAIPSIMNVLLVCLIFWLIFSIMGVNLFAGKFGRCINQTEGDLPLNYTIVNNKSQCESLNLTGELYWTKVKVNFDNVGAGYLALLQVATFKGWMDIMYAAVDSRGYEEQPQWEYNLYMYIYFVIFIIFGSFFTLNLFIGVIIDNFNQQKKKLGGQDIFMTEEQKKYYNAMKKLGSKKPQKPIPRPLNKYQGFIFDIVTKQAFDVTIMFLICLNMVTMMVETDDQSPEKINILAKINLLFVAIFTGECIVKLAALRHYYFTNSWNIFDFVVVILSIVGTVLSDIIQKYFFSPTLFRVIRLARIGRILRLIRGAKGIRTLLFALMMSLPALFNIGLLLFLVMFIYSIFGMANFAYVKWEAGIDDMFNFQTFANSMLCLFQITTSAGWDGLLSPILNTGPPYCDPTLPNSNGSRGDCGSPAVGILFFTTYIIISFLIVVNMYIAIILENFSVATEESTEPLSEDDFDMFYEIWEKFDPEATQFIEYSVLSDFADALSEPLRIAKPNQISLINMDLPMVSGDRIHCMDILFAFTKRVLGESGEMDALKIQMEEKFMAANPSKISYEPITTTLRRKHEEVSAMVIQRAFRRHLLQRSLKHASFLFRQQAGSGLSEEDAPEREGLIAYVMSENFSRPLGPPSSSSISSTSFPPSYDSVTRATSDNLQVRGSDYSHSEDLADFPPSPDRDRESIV

Row | Compound | Late INa % blk [1] [%] | inhibition at 10 µM [1] [%] | CaL Plate Assay % blk (1 μM test cmpd) (L-type calcium channel) [%] | CaL Plate Assay % blk (10 μM test cmpd) (L-type calcium channel) [%] | hERG Patch Clamp hERG % blk (1 μM test cmpd) (hERG potassium channel) [%] | hERG Patch Clamp hERG % blk (10 μM test cmpd) (hERG potassium channel) [%] | effect on late sodium current ([1]; late INa assay, compounds tested at 10 μM)
1 | 2-methyl-1-phenylpropan-2-yl 5-methyl-7-(naphthalen-1-yl)-4,7-dihydrotetrazolo[1,5-a]pyrimidine-6- [PT-264] | 53.5 | – | – | – | – | – | –
2 | CC1=C(C(=O)OCc2ccc(C(F)(F)F)cc2)C(c2cccc3ccccc23)n2nnnc2N1 (stereo not shown) [PT-051, 4-(trifluoromethyl)benzyl 5-methyl-7-(naphthalen-1-yl)-4,7-dihydrotetrazolo[1,5-a]pyrimidine-6-carboxylate] | – | 16.9 | – | – | – | – | –
3 | CC1=C(C(=O)O[C@@H](C)c2ccccc2)C(c2cc3ccccc3s2)n2nnnc2N1 (stereo partly drawn) [PT-056, (S)-1-phenylethyl 7-(benzo[b]thiophen-2-yl)-5-methyl-4,7-dihydrotetrazolo[1,5-a]pyrimidine-6-carboxylate] | 7.8 | – | – | – | – | – | –
4 | CC1=C(C(=O)O[C@@H](C)c2ccccc2)C(c2cc3ccccc3s2)n2nnnc2N1 (stereo partly drawn) [PT-057, (S)-1-phenylethyl 7-(benzo[b]thiophen-2-yl)-5-methyl-4,7-dihydrotetrazolo[1,5-a]pyrimidine-6-carboxylate] | – | 71 | – | – | – | – | –
5 | CC1=C(C(=O)OC(C)C)C(c2c[nH]nc2-c2ccc(F)cc2)C(C(=O)OC(C)C)=C(C)N1 [PT-128, diisopropyl 4-(3-(4-fluorophenyl)-1H-pyrazol-4-yl)-2,6-dimethyl-1,4-dihydropyridine-3,5-dicarboxylate] | – | 34.1 | – | – | – | – | –
6 | CCCC1=C(C(=O)OCC)C(c2ccsc2)C2=C(CC(c3ccccc3)CC2=O)N1 (stereo not shown) [PT-149, ethyl 5-oxo-7-phenyl-2-propyl-4-(thiophen-3-yl)-1,4,5,6,7,8-hexahydroquinoline-3-carboxylate] | – | – | 4 | 72 | 46 | 90 | –
7 | CCOC(=O)C1=C(C)NC2=C(C(=O)CCC2)C1c1ccco1 (stereo not shown) [PT-153, ethyl 4-(furan-2-yl)-2-methyl-5-oxo-1,4,5,6,7,8-hexahydroquinoline-3-carboxylate] | – | – | 3 | 44 | 10.5 | 13.5 | –
8 | CC1=C(C(=O)N2CCN(c3ccccc3)CC2)C(c2ccsc2)C2=C(CCCC2=O)N1 (stereo not shown) [PT-166, 2-methyl-3-(4-phenylpiperazine-1-carbonyl)-4-(thiophen-3-yl)-4,6,7,8-tetrahydroquinolin-5(1H)-one] | – | – | – | – | – | – | potentiated late sodium current
9 | CC1=C(C(=O)N2CCC(c3ccc(C(=O)O)cc3)CC2)C(c2cccc3ccccc23)C2=C(CCCC2=O)N1 (stereo not shown) [PT-173, 4-(1-(2-methyl-4-(naphthalen-1-yl)-5-oxo-1,4,5,6,7,8-hexahydroquinoline-3-carbonyl)piperidin-4-yl)benzoic acid] | – | – | 0 | 26 | 12 | 37 | –
10 | CC1=C(C(=O)NCc2ccccc2)C(c2ccsc2)C2=C(CCCC2=O)N1 (stereo not shown) [PT-178, N-benzyl-2-methyl-5-oxo-4-(thiophen-3-yl)-1,4,5,6,7,8-hexahydroquinoline-3-carboxamide] | – | – | 10 | 2 | 11.5 | 30 | –
11 | CC1=C(C(=O)Nc2c(C)cccc2C)C(c2ccsc2)C2=C(CCCC2=O)N1 (stereo not shown) [PT-180, N-(2,6-dimethylphenyl)-2-methyl-5-oxo-4-(thiophen-3-yl)-1,4,5,6,7,8-hexahydroquinoline-3-carboxamide] | – | -4.7 | – | – | – | – | –
12 | CCOC(=O)C1=C(CC)NC(CC)=C(C(=O)OCC)C1c1ccc(Br)s1 [PT-181, diethyl 4-(5-bromothiophen-2-yl)-2,6-diethyl-1,4-dihydropyridine-3,5-dicarboxylate] | – | – | 8 | 61 | 10.5 | 73 | –
13 | CCOC(=O)C1=C(C(C)C)NC(C(C)C)=C(C(=O)OCC)C1c1ccc(Br)s1 [PT-183, diethyl 4-(5-bromothiophen-2-yl)-2,6-diisopropyl-1,4-dihydropyridine-3,5-dicarboxylate] | – | – | 0 | 16 | 10 | 10 | –
14 | CCOC(=O)C1=C(C)N(C)C(C)=C(C(=O)OCC)C1c1cccc2ccccc12 [PT-191, diethyl 1,2,6-trimethyl-4-(naphthalen-1-yl)-1,4-dihydropyridine-3,5-dicarboxylate] | – | – | 12 | 37 | 26.5 | 68 | –
15 | CCOC(=O)C1=C(C)Nc2nnnn2C1c1cccc2ccccc12 (stereo not shown) [PT-192, ethyl 5-methyl-7-(naphthalen-1-yl)-4,7-dihydrotetrazolo[1,5-a]pyrimidine-6-carboxylate] | – | – | 9 | 12 | 23 | 29 | –
16 | CCOC(=O)C1=C(C)Nc2nc(C#N)c(C#N)n2C1c1cccc2ccccc12 (stereo not shown) [PT-194, ethyl 2,3-dicyano-7-methyl-5-(naphthalen-1-yl)-5,8-dihydroimidazo[1,2-a]pyrimidine-6-carboxylate] | – | – | 21 | 61 | 25 | 91 | –
17 | CC1=C(C(=O)OCc2ccccc2)C(c2cccc3ccccc23)n2nnnc2N1C (stereo not shown) [PT-195, benzyl 4,5-dimethyl-7-(naphthalen-1-yl)-4,7-dihydrotetrazolo[1,5-a]pyrimidine-6-carboxylate] | – | – | 0 | 88 | 12.5 | 49 | –
18 | CC1=C(C(=O)OCCc2nnn[nH]2)C(c2cccc3ccccc23)n2nnnc2N1 (stereo not shown) [PT-247, 2-(1H-tetrazol-5-yl)ethyl 5-methyl-7-(naphthalen-1-yl)-4,7-dihydrotetrazolo[1,5-a]pyrimidine-6-carboxylate] | – | 0.3 | – | – | – | – | –
19 | CC1=C(C(=O)N2CCC(c3ccc(C(N)=O)cc3)CC2)C(c2cccc3ccccc23)C2=C(CCCC2=O)N1 (stereo not shown) [PT-287, 4-(1-(2-methyl-4-(naphthalen-1-yl)-5-oxo-1,4,5,6,7,8-hexahydroquinoline-3-carbonyl)piperidin-4-yl)benzamide] | – | 8.6 | – | – | – | – | –

Source: patent publication US20090181986A1, “SUBSTITUTED HETEROCYCLIC COMPOUNDS” (priority 2007, published 2009)
